Test results published in ChEMBL document CHEMBL3804808, “Discovery of a Novel 2,6-Disubstituted Glucosamine Series of Potent and Selective Hexokinase 2 Inhibitors” (ACS Med Chem Lett, 2016).

Columns and labels:
[1] = biological target: T1, Hexokinase-1 (Homo sapiens, UniProt P19367); experiment: Inhibition of His-tagged human HK1 (11 to 917 residues) expressed in Escherichia coli BL21(DE3) using glucose as substrate after 45 mins by ADP-glo assay in presence of MgATP
T1 sequence (P19367 whole entry): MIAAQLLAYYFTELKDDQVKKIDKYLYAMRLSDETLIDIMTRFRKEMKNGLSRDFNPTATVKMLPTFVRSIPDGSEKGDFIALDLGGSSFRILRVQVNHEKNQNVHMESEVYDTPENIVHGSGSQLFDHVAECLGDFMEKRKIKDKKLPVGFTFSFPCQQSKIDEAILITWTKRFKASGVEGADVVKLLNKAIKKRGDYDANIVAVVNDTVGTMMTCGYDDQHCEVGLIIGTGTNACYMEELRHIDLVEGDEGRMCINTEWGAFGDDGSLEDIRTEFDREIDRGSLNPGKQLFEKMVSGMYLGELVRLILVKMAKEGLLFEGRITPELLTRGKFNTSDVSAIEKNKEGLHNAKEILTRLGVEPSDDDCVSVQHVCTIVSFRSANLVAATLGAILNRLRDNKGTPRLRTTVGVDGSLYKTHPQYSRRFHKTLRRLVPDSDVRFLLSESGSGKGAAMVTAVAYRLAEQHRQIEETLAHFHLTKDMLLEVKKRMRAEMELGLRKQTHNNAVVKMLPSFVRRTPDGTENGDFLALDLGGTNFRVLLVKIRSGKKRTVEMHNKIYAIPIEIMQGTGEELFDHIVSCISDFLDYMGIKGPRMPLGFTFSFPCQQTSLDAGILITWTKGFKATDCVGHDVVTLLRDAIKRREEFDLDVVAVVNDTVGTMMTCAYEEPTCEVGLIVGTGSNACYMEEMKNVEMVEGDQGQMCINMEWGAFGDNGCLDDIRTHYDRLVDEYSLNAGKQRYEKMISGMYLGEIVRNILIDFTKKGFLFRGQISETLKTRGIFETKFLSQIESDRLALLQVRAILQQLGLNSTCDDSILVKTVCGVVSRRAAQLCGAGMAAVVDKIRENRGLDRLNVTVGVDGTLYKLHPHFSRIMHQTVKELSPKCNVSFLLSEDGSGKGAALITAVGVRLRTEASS

[2] = biological target: T2, Hexokinase-2 (Homo sapiens, UniProt P52789); experiment: Inhibition of His-tagged human HK2 (17 to 916 residues) expressed in Escherichia coli BL21(DE3) using glucose as substrate after 45 mins by ADP-glo assay in presence of MgATP
T2 sequence (P52789 whole entry): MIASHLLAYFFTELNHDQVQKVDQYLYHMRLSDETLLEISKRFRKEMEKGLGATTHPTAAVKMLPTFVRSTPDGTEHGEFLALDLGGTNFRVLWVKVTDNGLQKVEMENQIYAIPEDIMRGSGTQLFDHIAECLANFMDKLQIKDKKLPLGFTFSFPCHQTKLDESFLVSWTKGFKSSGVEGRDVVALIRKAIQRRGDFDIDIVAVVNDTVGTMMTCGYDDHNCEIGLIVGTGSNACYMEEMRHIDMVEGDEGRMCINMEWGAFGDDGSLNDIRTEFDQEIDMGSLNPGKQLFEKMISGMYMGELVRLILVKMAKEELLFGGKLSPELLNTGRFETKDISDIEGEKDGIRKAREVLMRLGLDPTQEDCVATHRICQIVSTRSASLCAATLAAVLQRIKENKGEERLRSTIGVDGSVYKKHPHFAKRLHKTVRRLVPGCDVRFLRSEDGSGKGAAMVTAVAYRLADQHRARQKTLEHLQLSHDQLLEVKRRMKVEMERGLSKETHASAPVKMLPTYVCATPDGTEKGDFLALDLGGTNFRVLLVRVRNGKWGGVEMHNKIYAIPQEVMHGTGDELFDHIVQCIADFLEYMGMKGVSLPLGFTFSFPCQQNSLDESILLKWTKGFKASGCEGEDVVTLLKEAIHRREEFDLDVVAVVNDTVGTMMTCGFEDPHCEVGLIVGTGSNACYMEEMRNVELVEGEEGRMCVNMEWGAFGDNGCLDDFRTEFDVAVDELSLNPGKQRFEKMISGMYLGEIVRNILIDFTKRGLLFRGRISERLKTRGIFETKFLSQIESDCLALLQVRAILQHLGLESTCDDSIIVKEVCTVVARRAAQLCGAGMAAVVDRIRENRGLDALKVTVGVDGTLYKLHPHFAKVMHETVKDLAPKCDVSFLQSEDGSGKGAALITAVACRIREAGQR

[3] = biological target: T2, Hexokinase-2; experiment: Inhibition of HK2 in human UM-UC-3 cells using 2FDG as substrate assessed as suppression of G6P production preincubated for 30 mins followed by substrate treatment for 90 mins by resazurin assay; type: cell-based, UMUC3
[4] = biological target: T2, Hexokinase-2; experiment: Competitive inhibition of His-tagged human HK2 (17 to 916 residues) expressed in Escherichia coli BL21(DE3) assessed as formation of G6P by continuous G6P dehydrogenase coupled assay in presence of glucose
[5] = biological target: T3, Hexokinase-4 (Homo sapiens, UniProt P35557); experiment: Inhibition of HK4 (unknown origin)
T3 sequence (P35557 whole entry): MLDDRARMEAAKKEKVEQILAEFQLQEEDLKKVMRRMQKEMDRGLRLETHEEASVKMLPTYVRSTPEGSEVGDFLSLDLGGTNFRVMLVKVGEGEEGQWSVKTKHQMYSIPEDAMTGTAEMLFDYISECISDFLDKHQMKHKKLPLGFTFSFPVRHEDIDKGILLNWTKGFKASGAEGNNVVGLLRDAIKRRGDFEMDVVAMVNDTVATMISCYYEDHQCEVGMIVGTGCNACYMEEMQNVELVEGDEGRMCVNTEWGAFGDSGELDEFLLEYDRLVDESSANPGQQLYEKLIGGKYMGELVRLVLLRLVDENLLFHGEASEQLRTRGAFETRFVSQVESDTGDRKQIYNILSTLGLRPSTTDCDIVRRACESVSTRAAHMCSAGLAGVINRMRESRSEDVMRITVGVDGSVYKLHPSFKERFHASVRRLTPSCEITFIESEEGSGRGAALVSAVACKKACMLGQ

Row | Compound | IC50 [1] | IC50 [2] | IC50 [3] | Ki [4] | IC50 [5]
1 | COc1cc(C(=O)N[C@H]2C(O)O[C@H](CNS(=O)(=O)c3cccc(Cl)c3Cl)[C@@H](O)[C@@H]2O)cc(-c2ccc(C#N)cc2)c1 (stereo not given in full) | 0.0079 µM | 0.025 µM | – | – | –
2 | O=[N+]([O-])c1cccc(S(=O)(=O)N[C@H]2C(O)O[C@H](CNS(=O)(=O)c3cccc(Cl)c3Cl)[C@@H](O)[C@@H]2O)c1 (stereo not given in full) | 10 µM | 0.13 µM | – | – | –
3 | O=C(C=C1CCC(C(F)(F)F)CC1)N[C@H]1C(O)O[C@H](CO)[C@@H](O)[C@@H]1O (stereo not given in full) | 160 µM | 16 µM | – | – | –
4 | N#Cc1ccc(-c2cc(C(=O)N[C@H]3C(O)O[C@H](CO)[C@@H](O)[C@@H]3O)cc(C(F)(F)F)c2)cc1 (stereo not given in full) | 0.04 µM | 0.79 µM | – | – | –
5 | O=C(N[C@H]1C(O)O[C@H](CNS(=O)(=O)c2ccccc2Cl)[C@@H](O)[C@@H]1O)c1cccc(-c2ccccc2)c1 (stereo not given in full) | 0.016 µM | 0.1 µM | – | – | –
6 | Cc1oc(S(=O)(=O)NC[C@H]2OC(O)[C@H](NC(=O)c3cccc(Br)c3)[C@@H](O)[C@@H]2O)cc1C(=O)O (stereo not given in full) | 0.02 µM | 0.01 µM | – | – | –
7 | O=C(N[C@H]1C(O)O[C@H](CNS(=O)(=O)c2cnccc2Cl)[C@@H](O)[C@@H]1O)c1cccc(-c2ccccc2)c1 (stereo not given in full) | 0.02 µM | 0.1 µM | – | – | –
8 | O=S(=O)(N[C@H]1C(O)O[C@H](CNS(=O)(=O)c2cccc(Cl)c2Cl)[C@@H](O)[C@@H]1O)c1ccc(Cl)s1 (stereo not given in full) | 63 µM | 0.13 µM | 0.52 µM | – | –
9 | O=C(N[C@H]1C(O)O[C@H](CO)[C@@H](O)[C@@H]1O)c1cccc(-c2ccccc2)c1 (stereo not given in full) | 0.79 µM | 3.2 µM | – | – | –
10 | O=C(N[C@H]1C(O)O[C@H](CNS(=O)(=O)c2cccc(Cl)c2)[C@@H](O)[C@@H]1O)c1cccc(-c2ccccc2)c1 (stereo not given in full) | 0.16 µM | 0.32 µM | – | – | –
11 | O=S(=O)(N[C@H]1C(O)O[C@H](CNS(=O)(=O)c2cccc(Cl)c2Cl)[C@@H](O)[C@@H]1O)c1cccc(-c2ccccc2)c1 (stereo not given in full) | 5 µM | 0.025 µM | 0.47 µM | – | –
12 | O=C(/C=C/c1ccc(Cl)c(Cl)c1)N[C@H]1C(O)O[C@H](CO)[C@@H](O)[C@@H]1O (stereo not given in full) | 2 µM | 6.3 µM | – | 2.9 µM | –
13 | O=C(O)c1cccc(S(=O)(=O)NC[C@H]2OC(O)[C@H](NC(=O)c3cccc(-c4ccccc4)c3)[C@@H](O)[C@@H]2O)c1 (stereo not given in full) | 0.025 µM | 0.05 µM | – | – | –
14 | O=C(/C=C/c1ccc(Cl)c(Cl)c1)N[C@H]1CO[C@H](CO)[C@@H](O)[C@@H]1O | > 200 µM | > 400 µM | – | – | –
15 | O=C(N[C@H]1C(O)O[C@H](CNS(=O)(=O)c2ccccc2)[C@@H](O)[C@@H]1O)c1cccc(-c2ccccc2)c1 (stereo not given in full) | 0.16 µM | 0.79 µM | – | – | –
16 | O=C(N[C@H]1C(O)O[C@H](CO)[C@@H](O)[C@@H]1O)c1cc([N+](=O)[O-])cc([N+](=O)[O-])c1 (stereo not given in full) | 2 µM | 2 µM | – | – | –
17 | COC1O[C@H](CO)[C@@H](O)[C@H](O)[C@H]1NC(=O)/C=C/c1ccc(Cl)c(Cl)c1 (stereo not given in full) | > 200 µM | > 400 µM | – | – | –
18 | O=C(N[C@H]1C(O)O[C@H](CNS(=O)(=O)c2cccc(Cl)c2Cl)[C@@H](O)[C@@H]1O)c1cccc(-c2ccccc2)c1 (stereo not given in full) | 0.032 µM | 0.025 µM | 0.2 µM | – | 3.5 µM
19 | COC(=O)c1cc(S(=O)(=O)NC[C@H]2OC(O)[C@H](NC(=O)c3cccc(Br)c3)[C@@H](O)[C@@H]2O)oc1C (stereo not given in full) | 1.6 µM | 0.63 µM | – | – | –
20 | N#Cc1ccc(S(=O)(=O)NC[C@H]2OC(O)[C@H](NC(=O)c3cccc(-c4ccccc4)c3)[C@@H](O)[C@@H]2O)cc1 (stereo not given in full) | 0.0079 µM | 0.13 µM | – | – | –
21 | O=S(=O)(N[C@H]1C(O)O[C@H](CNS(=O)(=O)c2cccc(Cl)c2Cl)[C@@H](O)[C@@H]1O)c1ccc(Cl)c(Cl)c1 (stereo not given in full) | > 20 µM | 0.05 µM | – | – | –
22 | O=S(=O)(N[C@H]1C(O)O[C@H](CNS(=O)(=O)c2cccc(Cl)c2Cl)[C@@H](O)[C@@H]1O)c1cccc(-c2ccc(Cl)cc2)c1 (stereo not given in full) | 1 µM | 0.0079 µM | – | – | –
23 | O=C(N[C@H]1C(O)O[C@H](CNS(=O)(=O)c2cccc(Cl)c2Cl)[C@@H](O)[C@@H]1O)c1ccc(Cl)s1 (stereo not given in full) | 2 µM | 0.04 µM | – | – | –
24 | O=C(N[C@H]1C(O)O[C@H](CO)[C@@H](O)[C@@H]1O)c1ccc(-c2ccccc2)cc1 (stereo not given in full) | 13 µM | 16 µM | – | – | –
25 | Cc1ccc(S(=O)(=O)NC[C@H]2OC(O)[C@H](NC(=O)/C=C/c3ccc(Cl)c(Cl)c3)[C@@H](O)[C@@H]2O)cc1 (stereo not given in full) | 2 µM | 2 µM | – | – | –
